Data set [1] deals with rodent model of non-alcoholic steatohepatitis (NASH). Briefly: Picrosirius Red staining of liver in CDHFD rat NASH model. The class given is in vivo. To be noted: CDHFD rats, 12 weeks; ASK1i 0.03% in chow, Formula (III) 10 mg/kg QD PO; FIG. 7. The method, then: The following study was conducted to evaluate the efficacy of the combination of an ASK1 inhibitor (ASK1i) and an ACC inhibitor (ACCi) in a rodent model of non-alcoholic steatohepatitis (NASH) relative to the efficacy of the individual agents alone in the model. In this model, NASH was induced in male Wistar rats by administration of a choline-deficient high fat diet (CDHFD).
Male Wistar (Crl:Wi(Han)) rats (aged 8-9 weeks at arrival) were acquired from Charles River, Raleigh, N.C. and used in the current studies. This study complie with all applicable sections of the Final Rules of the Animal Welfare Act regulations (Code of Federal Regulations, Title 9), the Public Health Service Policy on Humane Care and Use of Laboratory Animals from the Office of Laboratory Animal Welfare, and the Guide for the Care and Use of Laboratory Animals from the National Research Council. […]
Whole slide images of Picrosirius Red (PSR) stained slides were captured using a Leica AT2 scanner at 40× magnification. […] Quantitative image analysis was performed on the whole slide images using Visiopharm image analysis software (Visiopharm, Hoersholm, Denmark) to determine the extent and intensity of PSR. The total PSR-stained area was measured and expressed as a percentage of total liver area stained.

The test system of data set [2] is subjects with NASH. Description: 12-week study of ASK1 inhibitor, ACC inhibitor and combination in subjects with NASH. The class given is in vivo, human. The procedure:
Centrally-read PDFF and MRE, and serum fibrosis markers were measured at baseline (BL), W4 and W12. Deuterated water was administered to measure fractional synthesis of lipids (de novo lipogenesis [DNL]).

Where [3] appears, read: W12, orally QD, Formula (II) 18 mg, Formula (IV) 20 mg, combination 18/20 mg.
The mark [4] stands for this setting: serum, W12, orally QD, Formula (II) 18 mg, Formula (IV) 20 mg, combination 18/20 mg.

Marks after values point to notes of the source that are not given here.

With `COc1ccccc1[C@H](Cn1c(=O)n(C(C)(C)C(=O)O)c(=O)c2c(C)c(-c3ncco3)sc21)O[C@H]1CC[C@@H](O)CC1` [Formula (III)], in data set [1], the “Reduction of hepatic PSR (% area)” value is given as 50%.
On to `COc1ccccc1[C@H](Cn1c(=O)n(C(C)(C)C(=O)O)c(=O)c2c(C)c(-c3ncco3)sc21)OC1CCOCC1` [Formula (IV)], for which the “PDFF compared with BL (in words)” value in data set [2] (12 weeks orally QD, Formula (IV) p=0.006, combination p<0.001) is on record as “significant improvements”. For the same molecule, the “ALT compared with BL (in words)” value in data set [2] (12 weeks orally QD, combination p=0.019) is “non-significant reductions”. Moreover, the “PIII-NP compared with BL (in words)” value in data set [2] (12 weeks orally QD, combination p=0.057) is given as “non-significant reductions”. The “TIMP-1 compared with BL (in words)” value in data set [2] (12 weeks orally QD, p=0.049) is recorded as “significant improvements”. Moreover, the “Grade 2 or higher AE, % of subjects” value in data set [2] (12 weeks, orally QD, Formula (II) 18 mg, Formula (IV) 20 mg, combination 18/20 mg) came to 40%. Further, in data set [2] (setting [3]), the “ALT, median relative (%) change from BL” value is recorded as −33.5%; the “GGT, median relative (%) change from BL” value is −1.6%; the “MRE, median relative (%) change from BL” value is −8.9%; the “MRI-PDFF, median relative (%) change from BL” value was −42.7* %. Further, the “≥30% reduction in MRI-PDFF, % of subjects” value in data set [2] (setting [3]) came out at 70%. Further, in data set [2] (setting [4]), the “PIII-NP, median relative (%) change from BL” value was −11.9% and the “TIMP-1, median relative (%) change from BL” value is recorded as −11.6* %.

The record behind these values is patent US20180311244A1, “METHODS OF TREATING LIVER DISEASE” (Gilead Sciences, Inc., priority 2017, published 2018).
